Source: patent US7671056B2, “Piperazine-piperidine antagonists and agonists of the 5-HT1A receptor” (Wyeth LLC, priority 2005, dated 2010)

Legend:
[1] = system: sexually experienced male rats (Sprague-Dawley rats); test: Animal model of SSRI-induced sexual dysfunction (non-contact penile erections); type: in vivo, rat
Experimental: The animal model is based on the finding that sexually experienced rats that are administered an SSRI, a drug used to treat certain conditions such as depression, display a reduction in the number of non-contact penile erections. SSRI treatment is associated with sexual dysfunction in human subjects. In general, the animal model exposes sexually experienced male rats (Sprague-Dawley rats) to female rats in estrous in a novel testing arena that is not the regular housing environment. The number of non-contact penile erections is assayed over a specified test period, e.g., 30 minutes (Sukoff, Rizzo, et al., 2006, Society for Neurosci. Abstr. 559.4; U.S. Application Ser. No. 60/682,3379, filed May 19, 2005). In the experiments described herein, animals were generally treated either with 0.9% saline (vehicle) or a drug (i.e., a compound of the invention) in the vehicle.
The ability of fluoxetine, an SSRI associated with sexual dysfunction in humans, to cause sexual dysfunction in the animal model was tested by examining a 10 mg/kg dose of fluoxetine or vehicle alone (0.9% saline), each administered intraperitoneally, once daily for 14 days, on the number of non-contact penile erections over a 30 minute trial period.
To examine the time course of the effects of a drug that causes sexual dysfunction, rats that were handled and tested as described above were treated acutely: rats were treated with vehicle for 6 days, and on the test day (day 7) instead of vehicle, the animals received a single dose of fluoxetine in vehicle (i.p.). For a subchronic (7 day) study, fluoxetine was administered each day for 7 days and the animals were evaluated on test day 7. For the chronic 14 day study, fluoxetine was administered each day for 14 days and the animals were tested on day 14. Each fluoxetine dose was 10 mg/kg in vehicle and was delivered i.p. on each of the test days as described above. The testing session for each section of the study was begun immediately following compound administration and the behavior observed for 30 minutes immediately following the drug administration. […]

male Sprague-Dawley rats = test: In vivo microdialysis of frontal cortex 5-HT (enhancement of SSRI activity); design: species or system rat; conditions: acute fluoxetine alone, 30 mg/kg s.c.
Experimental: The ability of the compounds of this invention to reduce time for onset of action of the representative SSRI fluoxetine was assessed using in vivo microdialysis. Using 2-3% halothane anesthesia (Fluothane; Zeneca, Cheshire, UK), male Sprague-Dawley rats (280-350 g; Charles River, Wilmington, Mass.) were secured in a stereotaxic frame with ear and incisor bars (David Kopf, Tujunga, Calif.) while a microdialysis guide cannula (CMA/12, CMA Microdialysis, Sweden) was directed above the dorsal lateral frontal cortex (A/P+3.2 mm, M/L−3.5 mm, D/L−1.3 mm). Coordinates were taken with a flat skull using the rat brain atlas of Paxinos and Watson (1986). […]
For in vivo neurochemical experiments, a microdialysis probe (CMA/12; active membrane length 2 mm; OD 0.5 mm; 20 kD cut-off) was pre-washed with artificial CSF (aCSF; 125 mM NaCl, 3 mM KCl, 0.75 mM MgSO4 and 1.2 mM CaCl2, pH 7.4) according to the manufacturers specifications. […] Subsequent microdialysis samples were collected for 3 h post-injection and analyzed for 5-HT content by high performance liquid chromatography (HPLC). […] Subsequent sample values were expressed as a percent change from this preinjection baseline value (or % change from baseline). Neurochemical data, excluding preinjection values, were analyzed by a two-way analysis of variance (ANOVA) with repeated measures (time). […]

Question: With `CNCCC(Oc1ccc(C(F)(F)F)cc1)c1ccccc1` (stereo not shown) [fluoxetine] as the molecule, how does the “sexual function (number of non-contact penile erections over 30 minutes)” value ([1]; 10 mg/kg i.p. each day for 7 days (sub-chronic)) read?
Answer: The value was “significant increase in sexual dysfunction”.

Question: And the “sexual function (number of non-contact penile erections over 30 minutes)” value ([1]; 10 mg/kg i.p. once daily for 14 days (chronic), vs vehicle)?
Answer: The value was “significant increase in sexual dysfunction”.

Question: What about the “sexual function (number of non-contact penile erections over 30 minutes)” value ([1]; 10 mg/kg i.p. once daily for 14 days (chronic), vs vehicle, listed as Fluoxetine) of the same molecule?
Answer: Its value is “decrease in sexual function”.

Question: What about the “frontal cortex serotonin levels” value (male Sprague-Dawley rats) of the same molecule?
Answer: The value was “did not increase serotonin levels”.
